Assays:
gastric secretions = experiment: anti-gastric secretion activity (Shay, pylorus-ligated rats), total acidity of gastric juice; format: in vivo, rat (male); conditions: 10 mg/kg, intraduodenally, 3 hours
Description: (1) Determination of the anti-gastric secretion activity
The technique used is described by H. SHAY et al. in Gastroenterology, 5, 43, (1945).
Male rats were used weighing about 200 g (10 animals per lot) which had been without food for 48 hours but were allowed an 8% glucose solution ad libitum. After the rats were slightly anesthetized with ether, the pylorus of each was ligated. After the end of the operation, the compound to be tested was administered intraduodenally in different doses, or in the case of the control animals, a 0.5% solution of carboxymethylcellulose was administered intraduodenally, after which the abdominal incision was sutured.
Three hours later, the animals were sacrificed and their stomachs removed, after ligating the esophagus. The gastric juice was removed and centrifuged. The volume of gastric juice was then determined and the total acidity was established by titrating a 100 μl sample of gastric juice to a pH of 7 by means of 1/10 N aqueous sodium hydroxide solution.
The percentages of variation in total acidity between gastric secretions of the test and control animals were calculated, with the results appearing below.

acute toxicity (LD50) = conditions: mouse, in vivo, po; orally in mice
Description: (3) Determination of acute toxicity
The LD50 was evaluated after administration of the products orally in mice.

[1] = tested on: stress ulcers in the stomachs of rats; experiment: anti-ulcer activity, stress ulcer (stress and cold); format: in vivo, rat (female); conditions: 10 mg/kg, by esophageal tube
Description: (2) Determination of anti-ulcer activity
The technique consists in inducing ulcers in the stomachs of rats by stress (stress and cold). The technique used is described by E. C. SENAY and R. J. LEVINE, Proc. Soc. Exp. Biol., 124, 1221 (1967).
Female rats of 150 g were used (5 animals per lot) which have fasted for 48 hours with water ad libitum and glucose solution for 8 hours. The animals were given the compound being tested, or 0.5% solution of carboxymethylcellulose for the control animals, by esophageal tube. Two hours later the animals were bundled in a jacket of netting. Their paws were tied and the entire unit was placed in a refrigerator at 8° C. for two hours. The rats were released and killed with ether.
Their stomachs were opened along the greater curvature and examined with a binocular magnifier. The seriousness of the lesions was rated from 0 to 3 for each stomach.
For each lot of the rats, the average intensity of the ulcerations was determined. The degree of ulceration for the test animals was determined and compared with the control animals for each lot.

| Compound | Anti-secretion activity: Acid conc. (% variation as compared with the controls) (gastric secretions) | LD50 (acute toxicity (LD50)) | Anti-ulcer activity: Ulceration (% variation as compared with the controls) [1] |
| --- | --- | --- | --- |
| O=C(O)/C=C/C(=O)c1ccc2c(c1)OCCO2 [Example 2, (E) 4-(2,3-dihydrobenzodioxine-6-yl)-4-oxobuten-2-oic acid] | -41% | 750 mg/kg | -33% |
| COc1cc(C(=O)/C=C/C(=O)O)ccc1O [Example 1, (E) 4-(3-methoxy-4-hydroxyphenyl)-4-oxobuten-2-oic acid] | -90% | 1000 mg/kg | -89% |
